Paper PMC5218480 (PLoS ONE, 2017)

Tested on: MV-4-11 cells
Experiment: Gene expression microarray analysis (Affymetrix PrimeView) and GSEA
Format: cell-based, human
Parameters: RFU PODN (11730768_x_at) / Fold change /veh PODN (11730768_x_at) / RFU LINC00158 (11744669_a_at) / Fold change /veh LINC00158 (11744669_a_at) / RFU DUSP10 (11751237_a_at) / Fold change /veh DUSP10 (11751237_a_at) / RFU ID3 (11757404_x_at) / Fold change /veh ID3 (11757404_x_at) / RFU PLEKHG5 (11737974_s_at) / Fold change /veh PLEKHG5 (11737974_s_at) / RFU LRRC4B (11730491_at) / Fold change /veh LRRC4B (11730491_at) / RFU GIMAP4 (11747438_a_at) / Fold change /veh GIMAP4 (11747438_a_at) / RFU KRT8 (11758183_x_at) / Fold change /veh KRT8 (11758183_x_at) / RFU CNN1 (11734310_a_at) / Fold change /veh CNN1 (11734310_a_at) / RFU VPS37D (11726825_at) / Fold change /veh VPS37D (11726825_at) / RFU C10orf10 (11716522_x_at) / Fold change /veh C10orf10 (11716522_x_at) / RFU KIR2DL2 /// KIR2DL4 /// KIR2DL5A /// KIR2DL5B /// KIR2DS1 /// KIR2DS2 /// KIR2DS3 /// KIR2DS4 /// KIR3DL3 /// KIR3DL3 /// KIR3DS1 (11738374_at) / Fold change /veh KIR2DL2 /// KIR2DL4 /// KIR2DL5A /// KIR2DL5B /// KIR2DS1 /// KIR2DS2 /// KIR2DS3 /// KIR2DS4 /// KIR3DL3 /// KIR3DL3 /// KIR3DS1 (11738374_at) / RFU C1QL1 (11718748_at) / Fold change /veh C1QL1 (11718748_at) / RFU TMPRSS4 (11747572_a_at) / Fold change /veh TMPRSS4 (11747572_a_at) / RFU HAMP (11756126_x_at) / Fold change /veh HAMP (11756126_x_at) / RFU RNFT2 (11725882_a_at) / Fold change /veh RNFT2 (11725882_a_at) / RFU NR4A2 (11747474_a_at) / Fold change /veh NR4A2 (11747474_a_at) / RFU ABCC12 (11746883_a_at) / Fold change /veh ABCC12 (11746883_a_at) / RFU TMEM136 (11760407_x_at) / Fold change /veh TMEM136 (11760407_x_at) / RFU CLDN22 /// WWC2 (11732394_at) / Fold change /veh CLDN22 /// WWC2 (11732394_at) / RFU HLA-DPB1 (11760878_x_at) / Fold change /veh HLA-DPB1 (11760878_x_at) / RFU SPINT1 (11716480_a_at) / Fold change /veh SPINT1 (11716480_a_at) / RFU GAP43 (11754022_s_at) / Fold change /veh GAP43 (11754022_s_at) / RFU A4GNT (11735810_at) / Fold change /veh A4GNT (11735810_at) / RFU PRB3 (11715151_x_at) / Fold change /veh PRB3 (11715151_x_at) / RFU TUBB4B (11761932_at) / Fold change /veh TUBB4B (11761932_at) / RFU CAPN14 (11732068_a_at) / Fold change /veh CAPN14 (11732068_a_at) / RFU TMCC2 (11721928_a_at) / Fold change /veh TMCC2 (11721928_a_at) / RFU IRGQ (11745062_a_at) / Fold change /veh IRGQ (11745062_a_at) / RFU FAM174B (11720279_a_at) / Fold change /veh FAM174B (11720279_a_at) / RFU TMPRSS4 (11748680_a_at) / Fold change /veh TMPRSS4 (11748680_a_at) / RFU FAM212B (11763350_a_at) / Fold change /veh FAM212B (11763350_a_at) / RFU PLEKHG5 (11743358_a_at) / Fold change /veh PLEKHG5 (11743358_a_at) / RFU ZSCAN30 (11745921_a_at) / Fold change /veh ZSCAN30 (11745921_a_at) / RFU CMKLR1 (11741424_a_at) / Fold change /veh CMKLR1 (11741424_a_at) / RFU LOC101060620 /// MAPK8IP1 (11723275_at) / Fold change /veh LOC101060620 /// MAPK8IP1 (11723275_at) / RFU SPTSSB (11747773_x_at) / Fold change /veh SPTSSB (11747773_x_at) / RFU PRSS12 (11739890_at) / Fold change /veh PRSS12 (11739890_at) / RFU BIN1 (11741810_x_at) / Fold change /veh BIN1 (11741810_x_at) / RFU WNT11 (11732464_a_at) / Fold change /veh WNT11 (11732464_a_at) / RFU C10orf10 (11716521_a_at) / Fold change /veh C10orf10 (11716521_a_at) / RFU C5orf56 (11738089_at) / Fold change /veh C5orf56 (11738089_at) / RFU CYB561 (11721691_x_at) / Fold change /veh CYB561 (11721691_x_at) / RFU ANKRD19P (11752326_a_at) / Fold change /veh ANKRD19P (11752326_a_at) / RFU OR2T12 /// OR2T33 /// OR2T8 (11738714_s_at) / Fold change /veh OR2T12 /// OR2T33 /// OR2T8 (11738714_s_at) / RFU VCAN (11748164_a_at) / Fold change /veh VCAN (11748164_a_at) / RFU JSRP1 (11732532_at) / Fold change /veh JSRP1 (11732532_at) / RFU KRTAP10-11 (11738290_x_at) / Fold change /veh KRTAP10-11 (11738290_x_at) / RFU MYO3A (11730013_a_at) / Fold change /veh MYO3A (11730013_a_at) / RFU EBF3 (11725865_a_at) / Fold change /veh EBF3 (11725865_a_at) / RFU CAMK2N1 (11719241_x_at) / Fold change /veh CAMK2N1 (11719241_x_at) / RFU C5orf56 (11738088_a_at) / Fold change /veh C5orf56 (11738088_a_at) / RFU OLFML3 (11715873_a_at) / Fold change /veh OLFML3 (11715873_a_at) / RFU LOC100653217 /// NTM (11731650_a_at) / Fold change /veh LOC100653217 /// NTM (11731650_a_at) / RFU MAPK11 (11762145_a_at) / Fold change /veh MAPK11 (11762145_a_at) / RFU FIZ1 (11724087_x_at) / Fold change /veh FIZ1 (11724087_x_at) / RFU OASL (11726364_x_at) / Fold change /veh OASL (11726364_x_at) / RFU SOX15 (11748057_x_at) / Fold change /veh SOX15 (11748057_x_at) / RFU CD79A (11719716_a_at) / Fold change /veh CD79A (11719716_a_at) / RFU HIST1H1D (11736915_at) / Fold change /veh HIST1H1D (11736915_at) / RFU CASKIN2 (11723855_a_at) / Fold change /veh CASKIN2 (11723855_a_at) / RFU LOC730098 (11760151_x_at) / Fold change /veh LOC730098 (11760151_x_at) / RFU OR4N2 (11742367_at) / Fold change /veh OR4N2 (11742367_at) / RFU PRRT2 (11749266_a_at) / Fold change /veh PRRT2 (11749266_a_at) / RFU SNX32 (11753110_a_at) / Fold change /veh SNX32 (11753110_a_at) / RFU CDHR5 (11726645_a_at) / Fold change /veh CDHR5 (11726645_a_at) / RFU RCAN1 (11760418_a_at) / Fold change /veh RCAN1 (11760418_a_at) / RFU FAM167A (11723789_a_at) / Fold change /veh FAM167A (11723789_a_at) / RFU FAM26E (11764081_at) / Fold change /veh FAM26E (11764081_at) / RFU ISYNA1 (11749810_s_at) / Fold change /veh ISYNA1 (11749810_s_at) / RFU ACY1 (11761880_at) / Fold change /veh ACY1 (11761880_at) / RFU 11764098_at / Fold change /veh 11764098_at / RFU SAMD14 (11745864_x_at) / Fold change /veh SAMD14 (11745864_x_at) / RFU NPB (11741838_a_at) / Fold change /veh NPB (11741838_a_at) / RFU TMPRSS6 (11731388_a_at) / Fold change /veh TMPRSS6 (11731388_a_at) / RFU KRTAP10-2 (11738614_at) / Fold change /veh KRTAP10-2 (11738614_at) / RFU ARHGAP8 /// PRR5-ARHGAP8 (11727945_x_at) / Fold change /veh ARHGAP8 /// PRR5-ARHGAP8 (11727945_x_at) / RFU KRTAP5-7 /// NADSYN1 (11734609_at) / Fold change /veh KRTAP5-7 /// NADSYN1 (11734609_at) / RFU RASL12 (11751679_a_at) / Fold change /veh RASL12 (11751679_a_at) / RFU CDKN2B (11736163_a_at) / Fold change /veh CDKN2B (11736163_a_at) / RFU PRF1 (11729649_at) / Fold change /veh PRF1 (11729649_at) / RFU, ZNF638 /// ZNF638-IT1 / Fold change vs veh, ZNF638 /// ZNF638-IT1 / RFU, PANK3 / Fold change vs veh, PANK3 / RFU, SH3YL1 / Fold change vs veh, SH3YL1 / RFU, ZEB2 / Fold change vs veh, ZEB2 / RFU, NRIP1 / Fold change vs veh, NRIP1 / RFU, PTTG1IP / Fold change vs veh, PTTG1IP / RFU, CAPN2 / Fold change vs veh, CAPN2 / RFU, MED14 / Fold change vs veh, MED14 / RFU, SNORA58 / Fold change vs veh, SNORA58 / RFU, C1orf63 / Fold change vs veh, C1orf63 / RFU, LRRFIP1 / Fold change vs veh, LRRFIP1 / RFU, NDUFAF7 / Fold change vs veh, NDUFAF7 / RFU, SLC12A2 / Fold change vs veh, SLC12A2 / RFU, IBTK / Fold change vs veh, IBTK / RFU, ESF1 / Fold change vs veh, ESF1 / Fold change vs veh, TMEM50B / RFU, TAOK1 / Fold change vs veh, TAOK1 / RFU, ACBD3 / Fold change vs veh, ACBD3 / RFU, TMA16 / Fold change vs veh, TMA16 / RFU, RWDD3 / Fold change vs veh, RWDD3 / RFU, BCAT1 / Fold change vs veh, BCAT1 / RFU, EDEM3 / Fold change vs veh, EDEM3 / RFU, TMEM33 / Fold change vs veh, TMEM33 / RFU, WDR75 / Fold change vs veh, WDR75 / RFU, AHCTF1 / Fold change vs veh, AHCTF1 / RFU, TFRC / Fold change vs veh, TFRC / RFU, ZDHHC17 / Fold change vs veh, ZDHHC17 / RFU, NOM1 / Fold change vs veh, NOM1 / RFU, ARL8B / Fold change vs veh, ARL8B / RFU, ZBTB11 / Fold change vs veh, ZBTB11 / RFU, TAMM41 / Fold change vs veh, TAMM41 / RFU, KIAA1704 /// LOC100996395 / Fold change vs veh, KIAA1704 /// LOC100996395 / RFU, ING1 / Fold change vs veh, ING1 / RFU, TRMT61B / Fold change vs veh, TRMT61B / RFU, FUBP3 / Fold change vs veh, FUBP3 / RFU, TP53 / Fold change vs veh, TP53 / RFU, TNKS2 / Fold change vs veh, TNKS2 / RFU, ZFP14 / Fold change vs veh, ZFP14 / RFU, ACTR2 / Fold change vs veh, ACTR2 / RFU, PPP3R1 / Fold change vs veh, PPP3R1 / RFU, PIK3R1 / Fold change vs veh, PIK3R1 / RFU, HNRNPA1 / Fold change vs veh, HNRNPA1 / RFU, RNF170 / Fold change vs veh, RNF170 / RFU, ZNF28 / Fold change vs veh, ZNF28 / RFU, RNGTT / Fold change vs veh, RNGTT / RFU, OGT / Fold change vs veh, OGT / RFU, BRD1 / Fold change vs veh, BRD1 / RFU, MARS / Fold change vs veh, MARS / RFU, ZNF655 / Fold change vs veh, ZNF655 / RFU, FAHD1 / Fold change vs veh, FAHD1 / RFU, BDP1 / Fold change vs veh, BDP1 / RFU, LRRCC1 / Fold change vs veh, LRRCC1 / RFU, ARID1A / Fold change vs veh, ARID1A / RFU, ZNF146 / Fold change vs veh, ZNF146 / RFU, ZNF330 / Fold change vs veh, ZNF330 / RFU, GPN3 / Fold change vs veh, GPN3 / RFU, C9orf123 / Fold change vs veh, C9orf123 / RFU, N4BP2L2 / Fold change vs veh, N4BP2L2 / RFU, ARFIP1 / Fold change vs veh, ARFIP1 / RFU, FAM179B / Fold change vs veh, FAM179B / RFU, BCL10 / Fold change vs veh, BCL10 / RFU, UHRF1BP1L / Fold change vs veh, UHRF1BP1L / RFU, BET1 / Fold change vs veh, BET1 / RFU, CNOT2 / Fold change vs veh, CNOT2 / RFU, ZNF268 / Fold change vs veh, ZNF268 / Fold change vs veh, ZNF507 / RFU, DGCR2 / Fold change vs veh, DGCR2 / RFU, WDSUB1 / Fold change vs veh, WDSUB1 / Fold change vs veh, HSP90B1 /// MIR3652 / RFU, ADSS / Fold change vs veh, ADSS / RFU, GK / Fold change vs veh, GK / RFU, ZNF148 / Fold change vs veh, ZNF148 / RFU, TAF9 / Fold change vs veh, TAF9 / RFU, SLC1A5 / Fold change vs veh, SLC1A5 / RFU, SLMO2 / Fold change vs veh, SLMO2 / RFU, ABCC4 / Fold change vs veh, ABCC4 / RFU, LOC101060439 /// RAP1B / Fold change vs veh, LOC101060439 /// RAP1B / RFU, RFX7 / Fold change vs veh, RFX7 / RFU, GTPBP10 / Fold change vs veh, GTPBP10 / RFU, CNEP1R1 / Fold change vs veh, CNEP1R1 / RFU, BIVM-ERCC5 /// ERCC5 / Fold change vs veh, BIVM-ERCC5 /// ERCC5 / RFU, ILF3 / Fold change vs veh, ILF3 / RFU 11762660_at / Fold change /veh 11762660_at / RFU VCAN (11757783_s_at) / Fold change /veh VCAN (11757783_s_at) / RFU DDX43 (11728927_at) / Fold change /veh DDX43 (11728927_at) / RFU KRT8 (11758188_x_at) / Fold change /veh KRT8 (11758188_x_at) / RFU NKD1 (11759106_at) / Fold change /veh NKD1 (11759106_at) / RFU SRD5A1 (11742802_a_at) / Fold change /veh SRD5A1 (11742802_a_at) / RFU TPSAB1 /// TPSB2 (11721975_s_at) / Fold change /veh TPSAB1 /// TPSB2 (11721975_s_at) / RFU GSTM3 (11746129_a_at) / Fold change /veh GSTM3 (11746129_a_at) / RFU IL23R (11737362_x_at) / Fold change /veh IL23R (11737362_x_at) / RFU TMEM51 (11727254_a_at) / Fold change /veh TMEM51 (11727254_a_at) / RFU PIWIL2 (11732686_x_at) / Fold change /veh PIWIL2 (11732686_x_at) / RFU ORM1 (11744905_x_at) / Fold change /veh ORM1 (11744905_x_at) / RFU CCDC152 (11743942_at) / Fold change /veh CCDC152 (11743942_at) / RFU ECM1 (11717891_a_at) / Fold change /veh ECM1 (11717891_a_at) / RFU IL23R (11748794_a_at) / Fold change /veh IL23R (11748794_a_at) / RFU TNFAIP8L3 (11732012_x_at) / Fold change /veh TNFAIP8L3 (11732012_x_at) / RFU MBOAT4 (11741988_at) / Fold change /veh MBOAT4 (11741988_at) / RFU 11764193_at / Fold change /veh 11764193_at / RFU TMEM53 (11763286_at) / Fold change /veh TMEM53 (11763286_at) / RFU MAGEB2 (11727129_at) / Fold change /veh MAGEB2 (11727129_at) / RFU TMEM200A (11744735_a_at) / Fold change /veh TMEM200A (11744735_a_at) / RFU CCDC152 (11751479_a_at) / Fold change /veh CCDC152 (11751479_a_at) / RFU FAM211A (11726209_a_at) / Fold change /veh FAM211A (11726209_a_at) / RFU RGS16 (11746705_a_at) / Fold change /veh RGS16 (11746705_a_at) / RFU VCAN (11755009_s_at) / Fold change /veh VCAN (11755009_s_at) / RFU RHOB (11743442_s_at) / Fold change /veh RHOB (11743442_s_at) / RFU RGS16 (11720943_a_at) / Fold change /veh RGS16 (11720943_a_at) / RFU RGS16 (11720944_at) / Fold change /veh RGS16 (11720944_at) / RFU, VPS4B / Fold change vs veh, VPS4B / RFU, CREB1 / Fold change vs veh, CREB1 / RFU, DNAJC13 / Fold change vs veh, DNAJC13 / RFU, GNAQ / Fold change vs veh, GNAQ / RFU, CDK5R1 / Fold change vs veh, CDK5R1 / RFU, ZRANB3 / Fold change vs veh, ZRANB3 / RFU, CUL4A / Fold change vs veh, CUL4A / RFU, CCNY / Fold change vs veh, CCNY / RFU, UFL1 / Fold change vs veh, UFL1 / RFU, COG3 / Fold change vs veh, COG3 / RFU, DIAPH2 / Fold change vs veh, DIAPH2 / RFU, SKA2 / Fold change vs veh, SKA2 / RFU, AFF3 / Fold change vs veh, AFF3 / RFU, LMF1 / Fold change vs veh, LMF1 / RFU, IPO11 / Fold change vs veh, IPO11 / RFU, DFFB / Fold change vs veh, DFFB / RFU, FOXP1 / Fold change vs veh, FOXP1 / RFU, CARD8 / Fold change vs veh, CARD8 / RFU, STRN3 / Fold change vs veh, STRN3 / RFU, ADK / Fold change vs veh, ADK / RFU, RASSF2 / Fold change vs veh, RASSF2 / RFU, WIPF1 / Fold change vs veh, WIPF1 / RFU, LARP1B / Fold change vs veh, LARP1B / RFU, RASA1 / Fold change vs veh, RASA1 / RFU, RB1 / Fold change vs veh, RB1 / RFU, PPFIA1 / Fold change vs veh, PPFIA1 / RFU, MAT2A / Fold change vs veh, MAT2A / RFU, CCT5 / Fold change vs veh, CCT5 / RFU, WDR92 / Fold change vs veh, WDR92 / RFU, CUX1 / Fold change vs veh, CUX1 / RFU, TTC7A / Fold change vs veh, TTC7A / RFU, TMEM135 / Fold change vs veh, TMEM135 / RFU, DEPTOR / Fold change vs veh, DEPTOR / RFU, CPM / Fold change vs veh, CPM / RFU, DNAJB6 / Fold change vs veh, DNAJB6 / RFU, CACNA2D3 / Fold change vs veh, CACNA2D3 / RFU, DTX4 / Fold change vs veh, DTX4 / RFU, TFCP2 / Fold change vs veh, TFCP2 / RFU, GMCL1 /// GMCL1P1 / Fold change vs veh, GMCL1 /// GMCL1P1 / RFU, AEBP2 / Fold change vs veh, AEBP2 / RFU, SNHG1 /// SNORD22 /// SNORD25 /// SNORD26 /// SNORD27 /// SNORD28 /// SNORD29 /// SNORD31 / Fold change vs veh, SNHG1 /// SNORD22 /// SNORD25 /// SNORD26 /// SNORD27 /// SNORD28 /// SNORD29 /// SNORD31 / Fold change (Aza/veh), C12orf56 (ProbeSet 11735607_a_at) / Fold change (ACY-1035/veh), C12orf56 (ProbeSet 11735607_a_at) / Fold change (Aza/veh), FGFR1OP (ProbeSet 11751329_s_at) / Fold change (ACY-1035/veh), FGFR1OP (ProbeSet 11751329_s_at) / Fold change (Aza/veh), VPS36 (ProbeSet 11739960_a_at) / Fold change (ACY-1035/veh), VPS36 (ProbeSet 11739960_a_at) / RFU SYPL1 (11715823_x_at) / Fold change /veh SYPL1 (11715823_x_at) / RFU IGFBP7 (11715501_s_at) / Fold change /veh IGFBP7 (11715501_s_at) / RFU REEP3 (11722064_at) / Fold change /veh REEP3 (11722064_at) / RFU IGLL1 (11728026_x_at) / Fold change /veh IGLL1 (11728026_x_at): dose or concentration left out as unconfirmed
Conditions: MV-4-11 cells, 48 hours

Nc1ccc(-c2cccs2)cc1NC(=O)c1ccc2c(c1)cc(C1CC1)n2CCN1CCOCC1 [ACY-1035]
Fold change /veh PLEKHG5 (11737974_s_at): 1.09
